The source of these data is patent US20090074766A1, “Methods of inhibiting HIV-2 infection” (priority 2007, published 2009).

In general, IC50 refers to the point on the concentration scale where inhibition reaches its midpoint. One may read the IC90 as the concentration at which the effect reaches the 90% level.

One data set concerns HIV-1. The following applies: treatment period of 10-14 days, dose-dependent; cited from earlier work.
For data set [1] the following is noted: single administration of TAK-652 solution (Baba et al., 2005); cited from earlier work.
Data set [2] has as its system reporter viruses pseudotyped with HIV-1SF162 envelope. Type of data set: cell-based. As to conditions: labelled 1st inhibitor with 2nd inhibitor PRO 140; envelope SF162; equimolar (1:10 PRO 140 to zidovudine or nevirapine). Set-up: CI90: unit not given beside the values. An excerpt: A self-inactivating (SIN) vector was derived from the pNL4-3ΔEnv-luciferase vector (Dragic et al. 1996) by deleting 507 basepairs in the U3 region of the 3′ long terminal repeat (LTR) so as to remove the TATA box and transcription factor binding sites. The human cytomegalovirus promoter was inserted upstream of the luciferase (luc) gene to enable expression of luciferase following integration.
Reporter viruses pseudotyped with HIV-1JR-FL or HIV-1SF162 envelopes were generated by cotransfection of 293T cells with the SIN vector and the appropriate pcDNA env-expressing vector as previously described (Dragic et al. 1996). […] Cultures were incubated for 72 h at 37° C. in DMEM containing 10% fetal bovine serum, 1 mg/mL puromycin, 0.3 mg/mL geneticin, antibiotics, and 0.5% DMSO. Luciferase activity (relative light units or RLU) was measured using BrightGlo reagent (Promega, Madison, Wis.) according to the manufacturer's instructions. Percent inhibition was calculated as: (1−RLU in the presence of inhibitor/RLU in the absence of inhibitor)×100.
Experimental design and data analysis were based on the combination index (CI) method (Chou et al. 1991; Chou et al. 1984). Compounds were tested individually and in combination at a fixed molar ratio over a range of serial dilutions. […] The mutually exclusive CI formula was used for combinations of CCR5 inhibitors, while the mutually non-exclusive formula was utilized for combinations of inhibitors to distinct targets (Chou et al. 1991). Each test was conducted 4-12 times. Synergy, additivity and antagonism are indicated by CI<1, CI=1 and CI>1, respectively.

For data set [3], the system named is reporter viruses pseudotyped with HIV-1JR-FL envelope. Type of data set: cell-based. Further details: CI90: unit not given beside the values. The following applies: for CI50 / CI90: labelled 1st inhibitor with 2nd inhibitor PRO 140, envelope JRFL, equimolar (1:10 PRO 140 to zidovudine or nevirapine); for inhibition of HIV-1 pseudovirus entry: result in words, data not shown. The text has this: HIV-1 pseudoparticles (HIV-1pp) are generated in 293T cells by transient coexpression of an HIV-1-based NL4/3luc+env− plasmid and a construct encoding HIV-1JRFL Env. The NL4/3luc+env− plasmid was obtained from the NIH AIDS Research and Reference Reagent Program (Cat. No. 3418), and the HIV-1JRFL Env was inserted into the pcDNA3.1 vector (Invitrogen). Briefly, 293T cells are calcium phosphate transfected with a 1:1 ratio of NL4/3luc+env− reporter vector and Env expression vector in Hepes buffer (Profection Mammalian Transfection Kit, Promega). After 16 h the transfection medium is aspirated and fresh cell culture medium (DMEM with 10% FBS, glutamine and antibiotics) is added and the incubation is continued at 37° C. for an additional 24-32 h. Cell culture supernatants are collected 48 h post-transfection and centrifuged at 1,400 rpm for 10 min to pellet cell debris. The viral supernatant is brought to a final concentration of 5% sucrose and stored aliquoted at −80° C.
U87-CD4-CCR5 cells were obtained from the NIH AIDS Research and Reference Program (Cat. No. 4035). These cells are maintained in culture medium (DMEM with 10% FBS, antibiotics and glutamine) containing 0.3 mg/ml G418 and 0.5 mg/ml puromycin. Cells are grown in T175-cm^2 flasks at 37° C. and diluted 1:5 every 3-4 days. For assay plate preparation, cells are trypsinized and seeded into wells of 96-well tissue-culture treated flat bottom opaque polystyrene plates (Perkin Elmer, Boston, Mass.) at a density of 3×10^3 cells/well. Plates are incubated for no more than 4 h at 37° C. in a humidified 5% CO2 incubator prior to their use in the HIV-1 pp susceptibility assay.
Fifty μl of diluted compound at 4× the desired final concentration are added per well. For compounds solubilized in DMSO, the 4× stock will contain 2% DMSO (such that the final DMSO concentration in the assay is always 0.5% for small molecules). Control wells receiving no compound are included on each plate. In addition, an AZT inhibition control is included in each assay. Compounds are tested individually and at a fixed mass or molar ratio over a broad range of concentrations.
A vial of frozen, aliquoted HIV-1pp is thawed in a 37° C. waterbath and then placed on wet ice. Virus is diluted in cold cell culture medium as necessary to achieve the desired final virus concentration in the HIV-1pp assay (about 10,000 relative light units (rlu) per well). 50 μl of diluted virus are added per well, bringing the final well volume to 200 μl. A no-virus control (minimum or background luminescence) and a no-compound control (maximum luminescence) are included on each plate. The plates are incubated for 72 h at 37° C. in a humidified 5% CO2 incubator followed by processing for luciferase signal (see below).
Assay medium is aspirated and 200 μl of PBS are added to each well. […] Assay plates are then frozen for at least 2 h at −80° C. followed by thawing at room temperature and vigorous mixing with an electronic pipettor. 25 μl from each well are transferred to an opaque 96-well plate (Costar #3922). Four replicates are pooled into the same well on the opaque plate. 100 μl of freshly thawed and reconstituted luciferase substrate (Luciferase Assay System, Promega—Cat. No. E1501) are added to each well of the plate with the electronic pipettor, and luminescence is detected immediately on a Dynex MLX plate reader set to medium gain.
The percent inhibition is derived as follows: [1−(luciferase activity in the presence of drug/luciferase activity in the absence of drug)]×100. IC50 values are determined by fitting the inhibition data with a non-linear, four-parameter, variable slope equation (GraphPad Prism, ver. 4.02; GraphPad Software, San Diego, Calif.). Upper and lower inhibition values are constrained to 100% and 0%, respectively for curve fitting. […]

The target in data set [4] is HIV-1JR-FL envelope-mediated membrane fusion (HeLa-EnvJRFL and CEM NKR-CCR5 cells) (Homo sapiens, UniProt P51681). The data set can be described thus: cell-based. The following applies: 2D7 in combination with the labelled inhibitor, 1:1 molar ratio. Here is the method:
(§1) The HIV-1 RET assay has been described in detail previously (Litwin et al., 1996). Briefly, fluorescein octadecyl ester (F18; Molecular Probes, Eugene, Oreg.; 5 mg/ml in ethanol), was diluted 1:800 in DMEM labeling medium (DMEM; Invitrogen, Carlsbad, Calif.) with 10% fetal bovine serum (FBS; HyClone, Logan, Utah) and adjusted to an A506 of 0.34±10%. Octadecyl rhodamine B chloride (R18; Molecular Probes; 10 mg/ml in ethanol) was diluted 1:2050 in labeling medium and adjusted to an A565 of 0.52±10%. Both dyes were further diluted 2-fold by addition to cells in T75-cm^2 flasks. HeLa-EnvJRFL and CEM NKR-CCR5 cells were incubated overnight in F18- and R18-containing culture medium, respectively. The following day, medium from HeLa-EnvJRFL cells was removed and 10 ml of 0.5 mM EDTA was added and incubated at 37° C. for 5 min. EDTA was removed and the flask was returned to the incubator for another 5 min followed by striking of the flask to dislodge cells. […] Suspension CEM NKR-CCR5 cells were added directly to a separate 50-ml conical centrifuge tube. Both cell lines were centrifuged at 300×g for 5 min. The supernatant was discarded and cells were resuspended in 10 ml of PBS-/15% FBS. The centrifugation/wash step was repeated twice, after which the cells were counted and concentrations adjusted to 1.5×10^6 cells/ml. Ten μl of each cell type (15,000 cells) were seeded into wells of a 384-well plate. Inhibitor compounds were added immediately thereafter to bring the final well volume to 40 μl, and the plates were incubated for 4 h at 37° C. Compounds were tested individually and in combination at a fixed molar ratio or mass ratio over a range of serial dilutions. The plates were then read on a fluorescence plate reader (Victor^2, Perkin Elmer, Boston, Mass.) using the excitation/emission filter combinations shown in Table 6.
(§2) The “% RET” was calculated according to the following formula after subtraction of background (blank) readings: […]
(§3) The “% Inhibition” was calculated according to the following formula: […]
(§4) Fifty percent inhibition (IC50) values were determined by fitting the inhibition data with a non-linear, four-parameter, variable slope equation (GraphPad Prism, 4.02; GraphPad Software, San Diego, Calif.). Upper and lower inhibition values were constrained to 100% and 0%, respectively for curve fitting.
(§5) For testing, small molecule compounds were solubilized in dimethylsulfoxide (DMSO) to 10 mM and then diluted in DMSO to 200× the final concentration to be utilized in the antiviral assay. Serial dilutions of small molecules were conducted in DMSO. Subsequent dilutions were conducted in medium to achieve a final DMSO concentration in the assay of 0.5%. Peptides and mAbs were diluted in PBS in the absence of DMSO.
(§6) HeLa cells were engineered to express HIV-1 gp120/gp41 from the macrophage-tropic primary isolate JRFL as described (HeLa-EnvJRFL; Litwin et al., 1996). Briefly, the HIV-1LAI Env gene was excised from the plasmid pMA243 (Dragic et al., 1992) and the HIV-1JRFL Env gene was inserted. The HIV-1JRFL Env gene was amplified from the plasmid pUCFL112-1 (Koyanagi et al., 1987). The resulting plasmid, designated JR-FL-pMA243, was sequenced by standard methods and transfected into HeLa cells using lipofectin (Gibco BRL/Invitrogen, Carlsbad, Calif.). HeLa-EnvJRFL transfectants were selected in methotrexate (Sigma, St. Louis, Mo.) and cloned twice by limiting dilution. The transduced human T cell leukemia line CEM NKR-CCR5 cells were obtained from the NIH AIDS Research and Reference Program (Cat. No. 458).
(§7) The HIV-1 RET assay has been described in detail previously (Litwin et al., 1996). Briefly, fluorescein octadecyl ester (F18; Molecular Probes, Eugene, Oreg.; 5 mg/ml in ethanol), was diluted 1:800 in DMEM labeling medium (DMEM; Invitrogen, Carlsbad, Calif.) with 10% fetal bovine serum (FBS; HyClone, Logan, Utah) and adjusted to an A506 of 0.34±10%.

For data set [5] the following is noted: in vivo, cited from earlier work.
For data set [6], the system named is HIV-1JR-FL envelope-mediated membrane fusion (HeLa-EnvJRFL and CEM NKR-CCR5 cells). The data set can be described thus: cell-based. The following applies: 1st inhibitor alone (Table 13). The method, then:
as §1, §2, §3, §4, §5, §6, §7

HIV-1JR-FL envelope-mediated membrane fusion (HeLa-EnvJRFL and CEM NKR-CCR5 cells) (Homo sapiens, UniProt P51681), sequence (P51681 whole entry, the tested form may be a part): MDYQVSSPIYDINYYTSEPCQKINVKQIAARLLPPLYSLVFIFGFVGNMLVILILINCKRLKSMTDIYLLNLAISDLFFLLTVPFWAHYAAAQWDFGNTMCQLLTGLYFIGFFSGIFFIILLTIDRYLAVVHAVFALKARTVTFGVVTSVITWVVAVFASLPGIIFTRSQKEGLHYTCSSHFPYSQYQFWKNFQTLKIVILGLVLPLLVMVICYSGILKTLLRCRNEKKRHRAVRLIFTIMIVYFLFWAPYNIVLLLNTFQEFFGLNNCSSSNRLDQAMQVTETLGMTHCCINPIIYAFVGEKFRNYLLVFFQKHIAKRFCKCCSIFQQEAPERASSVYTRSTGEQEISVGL

For the compound `CCCCN1C(=O)[C@@H]([C@H](O)C2CCCCC2)NC(=O)C12CCN(Cc1ccc(Oc3ccc(C(=O)O)cc3)cc1)CC2` [GW873140], the “mean reductions in HIV-1 RNA levels” value with HIV-1 is given as ~1 log10.
On to `CCO/N=C(\c1ccc(Br)cc1)C1CCN(C2(C)CCN(C(=O)c3c(C)cc[n+]([O-])c3C)CC2)CC1` [SCH-C], for which the “mean reductions in HIV-1 RNA levels” value in the data set on HIV-1 is listed as ~1 log10.
Take `CCCCOCCOc1ccc(-c2ccc3c(c2)/C=C(/C(=O)Nc2ccc([S@@+]([O-])Cc4cncn4CCC)cc2)CCCN3CC(C)C)cc1.CS(=O)(=O)O` [TAK-652]: the safety and tolerability result in data set [1] is “safe and well tolerated”.
Consider `Cc1ccnc2c1NC(=O)c1cccnc1N2C1CC1` [nevirapine], for which, in data set [2], the CI50 amounted to 1.2 ± 0.34 and the CI90 came out at 0.63 ± 0.19. In data set [3], this compound came in with a CI50 of 1.2 ± 0.38 and a CI90 of 0.73 ± 0.28.
For the compound `Cc1cn([C@H]2C[C@H](N=[N+]=[N-])[C@@H](CO)O2)c(=O)[nH]c1=O` [zidovudine], in data set [2], the CI50 was 0.99 ± 0.27 and the CI90 turned out to be 1.0 ± 0.38. In data set [3], the CI50 turned out to be 1.1 ± 0.38 and the CI90 is 0.85 ± 0.26.
As to “RANTES: CC-chemokine, natural peptide ligand of CCR5, purchased from R&D Systems”, in data set [3], the “inhibition of HIV-1 pseudovirus entry” value is reported as “Neither TAK-779 nor RANTES mediated consistent, high-level inhibition”. In data set [4], the “Mean Dose Reduction (2D7)” value worked out at 1.94 ± 0.08 and the “Mean Dose Reduction (Cpd in combination)” value amounted to 10.18 ± 1.86.
Take TAK-779: the “inhibition of HIV-1 pseudovirus entry” value in data set [3] is “Neither TAK-779 nor RANTES mediated consistent, high-level inhibition”. In data set [5] (po), the oral bioavailability entry is “poor oral bioavailability”. The local tolerability result in data set [5] was “local injection site irritation”.
Take enfuvirtide: in data set [6], the IC50 turned out to be 8.6 nM and the IC90 worked out at 66 nM.
